The source of these data is patent publication US11186564B2, “Dual NAV1.2/5HT2a inhibitors for treating CNS disorders” (Sunovion Pharmaceuticals Inc., priority 2016, dated 2021).

The target in experiment [1] is human sodium channel NaV1.2 (Homo sapiens, UniProt Q99250). Kind of experiment: NaV1.2 inhibition, automated patch-clamp (Q-Patch HTX), slow inactivated state (state C). Format: cell-based. The settings on record: hNaV1.2 CHO cells, slow inactivated state; for IC50: read-out: NaV1.2 IC50; for inhibition at 10 µM: 10 μM compound, read-out: NaV1.2 (% inh), 10 μM; for inhibition at 1 µM: 1 μM compound, read-out: NaV1.2 (% inh), 1 μM. The text has this: In vitro method for NaV1.2 inhibition assays: The methods utilized to assess the inhibitory activity of compounds on NaV1.2 were based on the methods described by Liu et al. [Liu Y, Beck E J, & Flores C M (2011): Validation of a patch clamp screening protocol that simultaneously measures compound activity in multiple states of the voltage-gated sodium channel Nav1.2. Assay Drug Development Technology 9, 628-634]. For these electrophysiology assays, a cell line (Chinese Hamster Ovarian K-1 cells (CHO K-1)) engineered to stably express human sodium channel NaV1.2 was purchased from Millipore Corporation (catalog no. CYL3023). The electrophysiology measurements were performed using automated patch-clamp methods on a Q-Patch HTX instrument by scientists at Evotec AG under contract with Sunovion.
Sequence of human sodium channel NaV1.2 (Q99250 whole entry): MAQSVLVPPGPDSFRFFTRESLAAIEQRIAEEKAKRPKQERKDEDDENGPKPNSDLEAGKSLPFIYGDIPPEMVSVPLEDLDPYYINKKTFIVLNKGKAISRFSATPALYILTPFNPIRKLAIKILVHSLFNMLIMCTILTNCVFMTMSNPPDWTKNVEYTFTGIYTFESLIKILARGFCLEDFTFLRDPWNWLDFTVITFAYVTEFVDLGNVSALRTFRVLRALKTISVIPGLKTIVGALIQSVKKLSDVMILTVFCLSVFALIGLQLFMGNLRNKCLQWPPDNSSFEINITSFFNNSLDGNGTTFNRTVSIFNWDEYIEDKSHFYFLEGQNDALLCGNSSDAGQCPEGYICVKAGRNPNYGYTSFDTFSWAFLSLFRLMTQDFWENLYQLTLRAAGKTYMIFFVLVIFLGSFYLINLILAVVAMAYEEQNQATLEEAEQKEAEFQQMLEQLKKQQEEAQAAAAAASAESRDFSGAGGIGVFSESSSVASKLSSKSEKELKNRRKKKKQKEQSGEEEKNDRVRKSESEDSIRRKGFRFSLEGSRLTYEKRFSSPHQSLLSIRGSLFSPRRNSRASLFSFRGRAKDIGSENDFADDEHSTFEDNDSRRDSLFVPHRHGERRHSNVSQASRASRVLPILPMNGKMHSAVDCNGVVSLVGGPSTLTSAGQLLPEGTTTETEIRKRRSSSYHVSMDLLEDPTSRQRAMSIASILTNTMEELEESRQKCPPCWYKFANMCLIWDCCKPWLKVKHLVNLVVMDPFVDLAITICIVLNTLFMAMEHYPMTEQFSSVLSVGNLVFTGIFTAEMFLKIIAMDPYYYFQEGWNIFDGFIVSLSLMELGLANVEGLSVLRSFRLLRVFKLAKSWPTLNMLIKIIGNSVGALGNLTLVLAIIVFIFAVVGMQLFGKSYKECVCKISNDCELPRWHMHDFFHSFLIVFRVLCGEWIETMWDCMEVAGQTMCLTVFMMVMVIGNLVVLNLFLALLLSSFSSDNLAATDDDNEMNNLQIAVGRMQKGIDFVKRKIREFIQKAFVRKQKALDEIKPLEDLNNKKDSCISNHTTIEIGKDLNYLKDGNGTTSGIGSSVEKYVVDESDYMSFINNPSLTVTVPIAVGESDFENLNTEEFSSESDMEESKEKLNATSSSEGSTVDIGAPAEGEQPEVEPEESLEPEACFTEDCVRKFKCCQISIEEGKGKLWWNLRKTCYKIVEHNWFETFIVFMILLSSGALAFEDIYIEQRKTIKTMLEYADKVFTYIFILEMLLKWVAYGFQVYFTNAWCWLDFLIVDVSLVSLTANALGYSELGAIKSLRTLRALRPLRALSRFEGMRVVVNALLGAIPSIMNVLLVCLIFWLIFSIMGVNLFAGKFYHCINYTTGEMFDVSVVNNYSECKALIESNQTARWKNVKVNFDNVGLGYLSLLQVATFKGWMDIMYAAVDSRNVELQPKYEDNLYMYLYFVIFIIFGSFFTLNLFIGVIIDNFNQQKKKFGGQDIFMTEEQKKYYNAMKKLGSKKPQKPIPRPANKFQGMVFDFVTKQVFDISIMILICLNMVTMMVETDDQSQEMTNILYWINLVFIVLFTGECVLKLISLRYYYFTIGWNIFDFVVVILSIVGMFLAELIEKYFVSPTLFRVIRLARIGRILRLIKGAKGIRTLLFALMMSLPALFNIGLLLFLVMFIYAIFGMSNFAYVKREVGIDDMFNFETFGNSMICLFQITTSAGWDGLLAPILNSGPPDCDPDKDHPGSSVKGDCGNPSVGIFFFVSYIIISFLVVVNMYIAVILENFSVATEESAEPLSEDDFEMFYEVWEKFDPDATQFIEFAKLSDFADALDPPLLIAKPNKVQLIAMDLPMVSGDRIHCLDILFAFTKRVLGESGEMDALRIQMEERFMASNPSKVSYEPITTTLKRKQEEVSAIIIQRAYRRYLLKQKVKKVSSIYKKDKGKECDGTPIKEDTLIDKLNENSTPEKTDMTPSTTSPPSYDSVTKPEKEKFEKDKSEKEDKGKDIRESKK
The solutions utilized for the Qpatch experiments were similar buffered solutions to those described by Liu et al. [Liu Y, Beck E J, & Flores C M (2011)]. The extracellular solution contained 140 millimolar sodium chloride, 4 millimolar potassium chloride, 2 millimolar calcium chloride, 1 millimolar magnesium chloride, 10 millimolar 4-(2-hydroxyethyl)-1-piperazineethanesulfonic acid (HEPES), and 10 millimolar glucose (pH adjusted to 7.4 with sodium hydroxide). The intracellular solution contained 100 millimolar cesium fluoride, 45 millimolar cesium chloride, 10 millimolar HEPES, 5 millimolar ethylene glycol tetraacetic acid (EGTA), and 5 millimolar glucose (pH adjusted to 7.2 with cesium hydroxide).
The biophysical experiments of Lui et al. [Liu Y, Beck E J, & Flores C M (2011)] were replicated to assess the fast, slow and total inactivation characteristics of the human Nav1.2 channel
Based upon results from studies of the fast, slow and total inactivation characteristics of the human Nav1.2 channel, a voltage protocol involving a sequence of consecutive pulses of current was used to measure channel activity in several states [Liu Y, Beck E J, & Flores C M (2011)]. The monolayer of CHO K-1 cells stably expressing human sodium channel NaV1.2 (hNaV1.2 CHO cells) was maintained in the Qpatch instrument at a potential of −100 millivolts (mV) except when the voltage protocol was being executed. The first pulse in the protocol involved a 100 millisecond depolarization to 0 mV to enable measurement of channel availability in the closed state (state A). The potential was then maintained at −90 mV for 15 milliseconds, followed by a five millisecond period of depolarization to 0 mV to enable measurement of channel availability after partial recovery from fast inactivation (state B). Next, the potential was maintained at −90 mV for 300 milliseconds, followed by ten seconds at −50 mV, 15 milliseconds at −90 mV, and finally another five millisecond period of depolarization to 0 mV to enable measurement of channel availability after additional recovery from fast inactivation and significant entry into the slow inactivated state (state C). Finally, after an additional 300 millisecond period at −90 mV, another five millisecond period of depolarization to 0 mV was employed to enable measurement of channel availability after partial recovery from the slow inactivated state (state D). Measurements of activity at state C were used to assess the activity of the NaV1.2 channel in the slow inactivated state. Comparison of activity after addition of test compounds or reference compounds with activity after addition of vehicle only provided a measure of percent remaining activity from which percent inhibition was calculated. […] A slight modification of this protocol was utilized to provide measurements as a function of compound concentration, which enabled IC50 values to be determined. IC50 values were calculated by non-linear least squares regression of the data (percent inhibition of ion channel NaV1.2 activity in the slow inactivated state) onto equation (1): % inhibition=100%/(1+(IC50/[compound]) equation (1)
J Pharmacol Exp Ther. 2008 July; 326(1):89-99.].
Background: In patch-clamp work, channel activity is measured electrically.

Experiment [2] addresses T1, recombinant human serotonin receptor 5-HT2A (Homo sapiens, UniProt P28223).
T1 construct: expressed in transfected cells; method B: loaded with Ca2+ dye
In words: 5-HT2A antagonist Ca2+ assay in CHO-K1 cells (method A aequorin luminescence / method B FLIPR fluorescence). The settings on record: antagonist mode vs EC80 of reference agonist, method A or B, read-out: 5HT2A IC50. Format: cell-based. In a few lines: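 Method A: CHO-K1 cells co-expressing human 5-HT2A and mitochondrial apoaequorin were given reference agonist at EC80 15 min after compound, with luminescence read. Method B: dye-loaded 5-HT2A CHO-K1 cells were pretreated with compound, then given serotonin at EC80, with FLIPR fluorescence read. IC50s came from nonlinear fits of percent inhibition.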

T1 sequence (P28223 whole entry): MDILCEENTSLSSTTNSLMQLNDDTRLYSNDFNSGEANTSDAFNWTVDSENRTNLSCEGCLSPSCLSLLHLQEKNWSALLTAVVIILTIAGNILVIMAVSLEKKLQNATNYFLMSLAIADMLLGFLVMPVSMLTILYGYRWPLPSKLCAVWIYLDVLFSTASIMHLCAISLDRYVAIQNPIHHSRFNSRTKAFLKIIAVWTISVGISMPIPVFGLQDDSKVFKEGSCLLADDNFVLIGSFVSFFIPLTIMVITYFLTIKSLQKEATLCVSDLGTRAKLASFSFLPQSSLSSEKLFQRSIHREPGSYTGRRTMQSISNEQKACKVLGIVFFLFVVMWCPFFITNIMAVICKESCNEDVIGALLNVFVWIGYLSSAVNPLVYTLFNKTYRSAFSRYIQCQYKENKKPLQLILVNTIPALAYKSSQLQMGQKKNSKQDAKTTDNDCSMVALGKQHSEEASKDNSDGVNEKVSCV

The IC50 is the concentration that gives 50% inhibition. As for `OC(COC1CCCCC1)CN1CCC2(CCc3ccccc3O2)CC1` (centres unmarked) [Example 436, 1-(cyclohexyloxy)-3-(spiro[chromane-2,4′-piperidin]-1′-yl)propan-2-ol], the figures for the IC50 in experiment [1] and in experiment [2] were 260 nM and 20 nM, respectively.
For the compound `COCc1cccc(OC2CCN(CCN3CCc4ccccc4C3=O)CC2)c1` [Example 196, 2-(2-(4-(3-(methoxymethyl)phenoxy)piperidin-1-yl)ethyl)-3,4-dihydroisoquinolin-1(2H)-one], the inhibition at 10 µM in experiment [1] turned out to be 67%. Moreover, in experiment [2], the IC50 worked out at 360 nM.
The corresponding values for `COc1ccc2c(c1)CCCN(CCN1CCC(Oc3ccc(F)cc3)CC1)C2=O` [Example 212, 2-(2-(4-(4-fluorophenoxy)piperidin-1-yl)ethyl)-7-methoxy-2,3,4,5-tetrahydro-1H-benzo[c]azepin-1-one] are 48% and 10 nM.
Consider `O[C@@H](CO[C@H]1CCCc2ccccc21)CN1CCN(Cc2ccccc2)CC1` [Example 85, (R)-1-(4-benzylpiperazin-1-yl)-3-(((S)-1,2,3,4-tetrahydronaphthalen-1-yl)oxy)propan-2-ol], for which the inhibition at 1 µM in experiment [1] came out at 24%. Besides, the half-maximal inhibitory concentration (IC50) in experiment [2] is over 11900 nM.
Regarding `c1ccc(N2CCN(CC3CCc4ccccc43)CC2)cc1` (centres unmarked) [Example 55, 1-((2,3-dihydro-1H-inden-1-yl)methyl)-4-phenylpiperazine], the figures for the IC50 in experiment [1] and in experiment [2] were 4120 nM and 10 nM, respectively.
Turning to `O[C@@H](CO[C@H]1CCc2ccccc21)CN1CCC(Oc2ccc(F)cc2)CC1` [Example 238, (R)-1-(((S)-2,3-dihydro-1H-inden-1-yl)oxy)-3-(4-(4-fluorophenoxy)piperidin-1-yl)propan-2-ol], the inhibition at 1 µM in experiment [1] was 47%. Moreover, in experiment [2], the IC50 came to 240 nM.
The corresponding values for `O=C1c2cc(Cl)ccc2CN1CCN1CCC(Oc2ccc(F)cc2)CC1` [Example 189, 6-chloro-2-(2-(4-(4-fluorophenoxy)piperidin-1-yl)ethyl)isoindolin-1-one] are 0% and 180 nM.
On to `O=C1CCc2ccccc2N1CCN1CCC(Oc2ccc(F)cc2)CC1` [Example 190, 1-(2-(4-(4-fluorophenoxy)piperidin-1-yl)ethyl)-3,4-dihydroquinolin-2(1H)-one], for which the inhibition at 1 µM in experiment [1] was determined as 25%. Besides, in experiment [2], the concentration for half-maximal inhibition (IC50) amounted to 10 nM.
For the compound `O=C1c2ccccc2CCCN1CCN1CCC(Oc2ccc(F)cc2)CC1` [Example 208, 2-(2-(4-(4-fluorophenoxy)piperidin-1-yl)ethyl)-2,3,4,5-tetrahydro-1H-benzo[c]azepin-1-one], the IC50 is 1210 nM in experiment [1] and 10 nM in experiment [2].
For `COc1ccccc1OC1CCN(CC2c3ccccc3CC2(C)C)CC1` (centres unmarked) [Example 100], in that order: 2600 nM and 710 nM.
Regarding `O=C(CN1CCN(c2cccc(Cl)c2)CC1)c1ccccc1` [Example 66, 2-(4-(3-chlorophenyl)piperazin-1-yl)-1-phenylethan-1-one], in experiment [1], the inhibition at 10 µM turned out to be 55%. Besides, the IC50 in experiment [2] came out at 890 nM.
Turning to `OC(CO[C@H]1CCc2ccccc21)CN1CCC(Oc2ccc(F)cc2)CC1` (stereo partly drawn) [Example 235, 1-(((S)-2,3-dihydro-1H-inden-1-yl)oxy)-3-(4-(4-fluorophenoxy)piperidin-1-yl)propan-2-ol], the IC50 in experiment [1] was determined as 340 nM; in experiment [2], 190 nM.
Consider `Fc1ccc(OC2CCN(CCC3CCOCC3)CC2)cc1` [Example 170, 4-(4-fluorophenoxy)-1-(2-(tetrahydro-2H-pyran-4-yl)ethyl)piperidine], for which the inhibition at 1 µM in experiment [1] is 5%. The IC50 in experiment [2] turned out to be 1110 nM.
In the case of `Fc1ccc(O[C@H]2CCN(CC3CCc4cccnc43)C2)cc1` (stereo partly drawn) [Example 8, 7-(((S)-3-(4-fluorophenoxy)pyrrolidin-1-yl)methyl)-6,7-dihydro-5H-cyclopenta[b]pyridine], the IC50 came out at 7450 nM in experiment [1] and 980 nM in experiment [2].
The corresponding values for `CN(C)c1ccc2c(c1)C(CN1CCC(Oc3ccc(F)cc3)CC1)CC2` (centres unmarked) [Example 116, 3-((4-(4-fluorophenoxy)piperidin-1-yl)methyl)-N,N-dimethyl-2,3-dihydro-1H-inden-5-amine] are 2340 nM and 10 nM.
Take `O=C1Nc2ccccc2CC12CCN(C[C@H](O)COc1ccccc1)CC2` [Example 445, (S)-1-(2-hydroxy-3-phenoxypropyl)-1′,4′-dihydro-2′H-spiro[piperidine-4,3′-quinolin]-2′-one]: the inhibition at 1 µM in experiment [1] is -2%. In addition, the IC50 in experiment [2] stood at 300 nM.
The corresponding values for `c1ccc2c(c1)CCC1(CCN(CCC3Cc4cccnc4C3)CC1)O2` (centres unmarked) [Example 419, 1′-(2-(6,7-dihydro-5H-cyclopenta[b]pyridin-6-yl)ethyl)spiro[chromane-2,4′-piperidine]] are 6% and 220 nM.
As for `c1ccc([C@H]2COC3(CCN(C[C@@H]4CCc5ccccc54)CC3)C2)cc1` (single isomer, unassigned) [Compound 378], the results for the IC50 in experiment [1] and in experiment [2] were 770 nM and 60 nM, respectively.
For `COc1cccc(OCCN2CCN(c3nsc4ccccc34)CC2)c1` [Example 68, 3-(4-(2-(3-methoxyphenoxy)ethyl)piperazin-1-yl)benzo[d]isothiazole], in that order: 730 nM and 4 nM.
The corresponding values for `COc1ccc2c(c1)C(CN1CCC3(CCc4ccccc4O3)CC1)CC2` (centres unmarked) [Example 402, 1′-((6-methoxy-2,3-dihydro-1H-inden-1-yl)methyl)spiro[chromane-2,4′-piperidine]] are 70 nM and 1070 nM.
`Cc1cccc(N2CCN(CC3COCc4ccccc43)CC2)c1C` (centres unmarked) [Example 57, 1-(2,3-dimethylphenyl)-4-(isochroman-4-ylmethyl)piperazine]: in experiment [1], the inhibition at 10 µM is 83%. The IC50 in experiment [2] worked out at 100 nM.
Regarding `COc1ccccc1CN1CCC2(CCN(CC3CCc4ccccc43)C2)C1` (centres unmarked) [Example 347, 2-((2,3-dihydro-1H-inden-1-yl)methyl)-7-(2-methoxybenzyl)-2,7-diazaspiro[4.4]nonane], the IC50 in experiment [1] turned out to be 3190 nM; in experiment [2], 30 nM.
As for `COc1cccc(OC2CCN(CCN3CCc4ccccc4C3=O)CC2)c1` [Example 195, 2-(2-(4-(3-methoxyphenoxy)piperidin-1-yl)ethyl)-3,4-dihydroisoquinolin-1(2H)-one], the IC50 amounted to 1500 nM in experiment [1] and 260 nM in experiment [2].
Consider `O=C1Nc2ccccc2CC12CCN(C[C@@H](O)COc1ccccc1)CC2` [Example 446, (R)-1-(2-hydroxy-3-phenoxypropyl)-1′,4′-dihydro-2′H-spiro[piperidine-4,3′-quinolin]-2′-one], for which, in experiment [1], the inhibition at 1 µM is 11%. The IC50 in experiment [2] was found to be 610 nM.
The corresponding values for `c1ccc2c(c1)CCC1(CCN(CC3Cc4ccncc4C3)CC1)O2` (centres unmarked) [Example 412, 1′-((6,7-dihydro-5H-cyclopenta[c]pyridin-6-yl)methyl)spiro[chromane-2,4′-piperidine]] are 18% and 1860 nM.
